# In patent US5648359A, “Tumor necrosis factor production inhibitors” (Sumitomo Pharmaceuticals Company, Limited, priority 1993, dated 1997):
# Where a name gives a salt, the structure may show the parent alone.
# System: TNF production or secretion in mouse peritoneal macrophages
# Assay: Inhibitory effect on TNF production or secretion in mouse peritoneal macrophages (30 μM)
# Type: cell-based, mouse (BALB/c)
# Details: Mus musculus; 30 μM compound; LPS 10 μg/ml, 18 hours; TNF by L929 bioassay
# Method: Inhibitory effect on TNF production or secretion in mouse peritoneal macrophages (In case drug concentration is 30 μM)
# BALB/c mice (5 weeks old, female, Charles River Japan) were intraperitoneally injected with 1 ml of 3% thioglycollate broth. After 4 days, the mice were sacrificed. Peritoneal exudated cells (PECs) were collected from the peritoneal cavity by washing with minimum essential medium (hereinafter abbreviated as MEM, manufactured by Handai Biseibutubyo Kenkyukai, Osaka, Japan) containing 5 U/ml heparin and 1% fetal bovine serum (FBS, manufactured by GIBCO Laboratories Inc.). PECs were washed three times with MEM, suspended with MEM containing 10% FBS. After the viable cells were counted by exclusion of trypan blue dye, the suspension was adjusted at the final concentration of 2×10^6 cells/ml with MEM containing 10% FBS and seeded into a 96-well microplate (Costar, Cambridge, Mass., USA) at 2×10^5 cells/100 μl/well. The PECs were incubated for an hour at 37° C. in a humidified 5% CO2 incubator, and were washed twice with MEM warmed at 37° C. to remove non-adherent cells. Residual adherent cells were used as peritoneal macrophages. After the washing above, 50 μl each/well of MEM containing 10% FBS was added to each well and provided for use in the following experiment.
# The powdery compound of the present invention was dissolved in dimethylsulfoxide in a concentration of 30 mM. The solution was then diluted with MEM containing 10% FBS in the final concentration of 30 μM. In the peritoneal macrophages obtained above, 50 μl each of the dilution was added to each well to make the total volume 100 μl. Thereafter 100 μl each of lipopolysaccharide (hereinafter abbreviated as LPS, E. coli 0111B4, manufactured by DIFCO, USA) was added to each well in the final concentration of 10 μg/ml. After the cells were incubated at 37° C. for 18 hours in a humidified 5% CO2 incubator, 25 μl of the supernatant in each well was collected.
# The TNF activity in the supernatant collected was determined by bioassay using TNF-sensitive mouse fibroblast cell line L929 cells. That is, 100 μl each of MEM containing 10% FBS was added to each well of a 96-well microplate; using the resulting mixture, 25 μl of the collected supernatant was diluted to 5-fold dilution to final concentrations (concentrations after the following addition of L929 cell suspension) of 10%, 2%, 0.4% and 0.08%.
# L929 cells were then suspended (4×10^5 cells/ml) in MEM containing 10% FBS and 1 μg/ml actinomycin D (Sigma Co.) and 100 μl each of the suspension was added to each well of the above microplate at 4×10^4 cells/well and cultured at 37° C. in a humidified 50% CO2. The viable cells were counted by partial modification of the MTT method reported in Monosann et al., T., J. Immunol. Method, 65, 55-63, 1983. The modified MTT method comprises the following steps. One mg/ml of 3-(4,5-dimethylthiazol-2-yl)-2,5-diphenyltetrazolium bromide (hereinafter abbreviated as MTT, manufactured by Sigma Co.) was dissolved in MEM, and 50 μl each of the solution was added to each well of the microplate above. After incubating the microplate for further 6 hours, the supernatant was discarded and 100 μl of 0.004N HCl-isopropyl alcohol and then 10 μl of 0.01% sodium laurylsulfate aqueous solution was added to each well. After shaking the 96-well microplate for a few minutes, the absorbance in each well was measured with a microplate reader (Corona Co.) at an absorption wavelength of 550 nm. The absorbance correlated to the count of the viable L929 cells and represented the TNF activity in the supernatant. The TNF activity was determined in terms of unit (U)/ml from the calibration curve of absorbance for the TNF activity obtained using mouse recombinant TNF α (TNF-M, manufactured by Genzyme Co.) as a standard. The activity of inhibiting TNF production of each compound, was determined by the following equation.
# Inhibition of TNF production or secretion (%)=(1-TNF activity in the […]
row,Structure (SMILES),inhibition at 30 µM [%]
1,"CC(=O)N1C2Cc3cc4c(cc3C1Cc1cc3c(cc12)OCO3)OCO4 [Example 1, 15-acetyl-5,6,12,13-tetrahydrocycloocta[1,2-f:5,6-f']bis[1,3]benzodioxol-5,12-imine]",95
2,"CCN1C2Cc3cc4c(cc3C1Cc1cc3c(cc12)OCO3)OCO4 [Example 2, 15-ethyl-5,6,12,13-tetrahydrocycloocta[1,2-f:5,6-f']bis[1,3]benzodioxol-5,12-imine hydrochloride]",72
3,"c1coc(CN2C3Cc4cc5c(cc4C2Cc2cc4c(cc23)OCO4)OCO5)c1 [Example 3, 15-furfuryl-5,6,12,13-tetrahydrocycloocta[1,2-f:5,6-f']bis[1,3]benzodioxol-5,12-imine hydrochloride]",-99
4,"Fc1ccc(CCCN2C3Cc4cc5c(cc4C2Cc2cc4c(cc23)OCO4)OCO5)cc1 [Example 4, 15-[3-(4-fluorophenyl)propyl]-5,6,12,13-tetrahydrocycloocta[1,2-f:5,6-f']bis[1,3]benzodioxol-5,12-imine hydrochloride]",18
5,"CC(=O)N1C2Cc3cc4c(cc3C1Cc1cc3c(cc12)OCCO3)OCCO4 [Example 5, 17-acetyl-6,7,14,15-tetrahydrocycloocta[1,2-g:5,6-g']bis[1,4]benzodioxan-6,14-imine]",64
6,"c1c2c(cc3c1OCO3)C1Cc3cc4c(cc3C(C2)N1)OCO4 [Example 13, 5,6,12,13-tetrahydrocycloocta-[1,2-f:5,6-f']bis[1,3]benzodioxol-5,12-imine]",78
7,c1c2c(cc3c1OCCO3)C1Cc3cc4c(cc3C(C2)N1)OCCO4 [Example 14],63
8,"CCC(=O)N1C2Cc3cc4c(cc3C1Cc1cc3c(cc12)OCO3)OCO4 [Example 17, 5,6,12,13-tetrahydro-15-propionylcycloocta-[1,2-f:5,6-f']bis[1,3]benzodioxol-5,12-imine]",94
9,CCCC(=O)N1C2Cc3cc4c(cc3C1Cc1cc3c(cc12)OCO3)OCO4 [Example 18],86
10,COCC(=O)N1C2Cc3cc4c(cc3C1Cc1cc3c(cc12)OCO3)OCO4 [Example 20],92
11,"CCOC(=O)C(=O)N1C2Cc3cc4c(cc3C1Cc1cc3c(cc12)OCO3)OCO4 [Example 21, 15-ethoxalyl-5,6,12,13-tetrahydrocycloocta[1,2-f:5,6-f']bis[1,3]benzodioxol-5,12-imine]",69
12,"CCOC(=O)CC(=O)N1C2Cc3cc4c(cc3C1Cc1cc3c(cc12)OCO3)OCO4 [Example 22, 15-(ethoxycarbonylacetyl)-5,6,12,13-tetrahydrocycloocta[1,2-f:5,6-g']bis[1,3]benzodioxol-5,12-imine]",77
13,O=C(c1ccccc1)N1C2Cc3cc4c(cc3C1Cc1cc3c(cc12)OCO3)OCO4 [Example 23],39
14,CCOC(=O)N1C2Cc3cc4c(cc3C1Cc1cc3c(cc12)OCO3)OCO4 [Example 24],68
15,CCCCCOC(=O)N1C2Cc3cc4c(cc3C1Cc1cc3c(cc12)OCO3)OCO4 [Example 25],46
16,O=C(Oc1ccccc1)N1C2Cc3cc4c(cc3C1Cc1cc3c(cc12)OCO3)OCO4 [Example 26],27
17,CN1C2Cc3cc4c(cc3C1Cc1cc3c(cc12)OCO3)OCO4 [Example 27],86
18,CC(C)CN1C2Cc3cc4c(cc3C1Cc1cc3c(cc12)OCO3)OCO4 [Example 31],36
19,C=CCN1C2Cc3cc4c(cc3C1Cc1cc3c(cc12)OCO3)OCO4 [Example 32],12

row,Structure (SMILES),inhibition at 30 µM [%]
1,C=CCCCN1C2Cc3cc4c(cc3C1Cc1cc3c(cc12)OCO3)OCO4 [Example 33],-5
2,c1c2c(cc3c1OCO3)C1Cc3cc4c(cc3C(C2)N1CCN1CCCCC1)OCO4 [Example 34],56
3,OCCN1C2Cc3cc4c(cc3C1Cc1cc3c(cc12)OCO3)OCO4 [Example 35],65
4,COC(=O)CCN1C2Cc3cc4c(cc3C1Cc1cc3c(cc12)OCO3)OCO4 [Example 36],-24
5,CCOC(=O)CN1C2Cc3cc4c(cc3C1Cc1cc3c(cc12)OCO3)OCO4 [Example 37],19
6,CCOC(=O)CCN1C2Cc3cc4c(cc3C1Cc1cc3c(cc12)OCO3)OCO4 [Example 38],6
7,"N#CCCN1C2Cc3cc4c(cc3C1Cc1cc3c(cc12)OCO3)OCO4 [Example 39, 15-(2-cyanoethyl)-5,6,12,13-tetrahydrocycloocta[1,2-f:5,6-f']bis[1,3]benzodioxol-5,12-imine]",-48
8,"O=CN1C2Cc3cc4c(cc3C1Cc1cc3c(cc12)OCO3)OCO4 [Example 40, 15-formyl-5,6,12,13-tetrahydrocycloocta[1,2-f:5,6-f']bis[1,3]benzodioxol-5,12-imine]",84
9,"COCCN1C2Cc3cc4c(cc3C1Cc1cc3c(cc12)OCO3)OCO4 [Example 42, 5,6,12,13-tetrahydro-15-(2-methoxyethyl)cycloocta[1,2-f:5,6-f']bis[1,3]benzodioxol-5,12-imine]",11
10,"CNC(=O)N1C2Cc3cc4c(cc3C1Cc1cc3c(cc12)OCO3)OCO4 [Example 44, 5,6,12,13-tetrahydro-15-(N-methylcarbamoyl)cycloocta[1,2-f:5,6-f']bis[1,3]benzodioxol-5,12-imine]",90
11,"O=C(O)CC(=O)N1C2Cc3cc4c(cc3C1Cc1cc3c(cc12)OCO3)OCO4 [Example 45, 15-(carboxyacetyl)-5,6,12,13-tetrahydrocycloocta[1,2-f:5,6-f']bis[1,3]benzodioxol-5,12-imine]",15
12,"O=C(O)C(=O)N1C2Cc3cc4c(cc3C1Cc1cc3c(cc12)OCO3)OCO4 [Example 46, 5,6,12,13-tetrahydro-15-oxalocycloocta[1,2-f:5,6-f']bis[1,3]benzodioxol-5,12-imine]",6
13,"O=C(CCO)N1C2Cc3cc4c(cc3C1Cc1cc3c(cc12)OCO3)OCO4 [Example 47, 5,6,12,13-tetrahydro-15-(3-hydroxypropionyl)cycloocta[1,2-f:5,6-f']bis[1,3]benzodioxol-5,12-imine]",83
14,"O=C(CO)N1C2Cc3cc4c(cc3C1Cc1cc3c(cc12)OCO3)OCO4 [Example 48, 15-glycoloyl-5,6,12,13-tetrahydrocycloocta[1,2-f:5,6-f']bis-[1,3]benzodioxol-5,12-imine]",85
15,"NCCN1C2Cc3cc4c(cc3C1Cc1cc3c(cc12)OCO3)OCO4 [Example 50, 15-(2-aminoethyl)-5,6,12,13-tetrahydrocycloocta[1,2-f:5,6-f']bis[1,3]benzodioxol-5,12-imine]",64
16,"NCCCCN1C2Cc3cc4c(cc3C1Cc1cc3c(cc12)OCO3)OCO4 [Example 51, 15-(4-aminobutyl)-5,6,12,13-tetrahydrocycloocta[1,2-f:5,6-f']bis[1,3]benzodioxol-5,12-imine]",-44
17,"NCC(=O)N1C2Cc3cc4c(cc3C1Cc1cc3c(cc12)OCO3)OCO4 [Example 52, 15-glycyl-5,6,12,13-tetrahydrocycloocta[1,2-f:5,6-f']bis[1,3]benzodioxol-5,12-imine]",20
18,"NCCC(=O)N1C2Cc3cc4c(cc3C1Cc1cc3c(cc12)OCO3)OCO4 [Example 53, 15-(3-aminopropionyl)-5,6,12,13-tetrahydrocycloocta[1,2-f:5,6-f']bis[1,3]benzodioxol-5,12-imine]",-1
